{"source": "ChEMBL document CHEMBL4680259", "about": "“Discovery of bazedoxifene analogues targeting glycoprotein 130” (Eur J Med Chem, 2020)", "key": {"[1]": {"experiment": "Acute toxicity in ICR mouse assessed as mortality at 120 mg/kg measured after 2 weeks", "format": "organism-based", "details": "in vivo, 336 h"}, "[2]": {"system": "A549", "experiment": "Induction of apoptosis in human A549 cells assessed as early apoptotic cells at 9 uM incubated for 24 hrs by annexin V-FITC and propidium iodide staining based flow cytometry analysis (reference value: 0.5 %)", "format": "functional"}, "[3]": {"target": "T1, Interleukin-6 receptor subunit beta (Homo sapiens) (UniProt P40189)", "T1 sequence (whole entry)": "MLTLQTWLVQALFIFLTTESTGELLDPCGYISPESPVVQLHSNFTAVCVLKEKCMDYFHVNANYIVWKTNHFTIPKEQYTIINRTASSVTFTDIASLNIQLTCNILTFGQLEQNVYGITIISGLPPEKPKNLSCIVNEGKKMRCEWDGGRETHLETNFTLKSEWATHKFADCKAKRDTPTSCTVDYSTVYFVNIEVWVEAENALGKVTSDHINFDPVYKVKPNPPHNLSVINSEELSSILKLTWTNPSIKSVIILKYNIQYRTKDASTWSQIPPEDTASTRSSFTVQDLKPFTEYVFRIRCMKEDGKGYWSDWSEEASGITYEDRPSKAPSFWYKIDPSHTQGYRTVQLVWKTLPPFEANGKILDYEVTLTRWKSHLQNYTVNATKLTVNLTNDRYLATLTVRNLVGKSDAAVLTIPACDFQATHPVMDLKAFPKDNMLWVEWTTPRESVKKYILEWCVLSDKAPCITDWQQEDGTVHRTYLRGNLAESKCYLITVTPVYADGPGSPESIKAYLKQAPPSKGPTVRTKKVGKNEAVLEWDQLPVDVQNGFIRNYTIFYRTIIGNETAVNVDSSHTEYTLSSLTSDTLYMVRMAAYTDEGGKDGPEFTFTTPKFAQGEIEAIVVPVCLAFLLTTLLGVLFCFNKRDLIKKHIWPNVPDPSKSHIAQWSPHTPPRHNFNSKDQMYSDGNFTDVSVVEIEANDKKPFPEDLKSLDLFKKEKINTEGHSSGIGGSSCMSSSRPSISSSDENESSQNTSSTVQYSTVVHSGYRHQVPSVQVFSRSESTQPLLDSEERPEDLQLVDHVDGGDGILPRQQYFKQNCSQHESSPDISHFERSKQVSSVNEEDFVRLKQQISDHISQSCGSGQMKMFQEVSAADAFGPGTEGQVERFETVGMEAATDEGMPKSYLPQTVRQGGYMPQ", "experiment": "Inhibition of GP130 in human A549 cells assessed as reduction in cyclin-D1 protein expression after 24 hrs by Western blot analysis", "format": "cell-based", "details": "dose 3-9 µM"}, "[4]": {"system": "A549", "experiment": "Induction of apoptosis in human A549 cells assessed as viable cells at 3 uM incubated for 24 hrs by annexin V-FITC and propidium iodide staining based flow cytometry analysis (reference value: 97.7 %)", "format": "functional", "details": "read-out: Activity"}}}
{"smiles": "NC(=O)N1N=C(c2ccc(C(F)(F)F)cc2)CC1c1cn(Cc2ccc(OCCN3CCCCCC3)cc2)c2ccc(Br)cc12", "note": "(centres undefined)", "values": [{"measurement": "Activity", "setting": "[1]", "result": "Non-Toxic"}, {"measurement": "Activity", "setting": "[2]", "result": 3.1, "unit": "%"}, {"measurement": "inhibition", "setting": "[3]", "result": "Dose-dependent effect"}, {"measurement": "viability at 3 µM", "setting": "[4]", "result": 96.3, "unit": "%"}]}
